Measured values published in patent US11319324B2, “Pyrazolo-pyrrolo-pyrimidine-dione derivatives as P2X3 inhibitors” (Bayer Aktiengesellschaft, priority 2017, dated 2022).

Legend:
Type in all cases: cell-based
[1] = biological target: T1, human P2X3 receptor (Homo sapiens, UniProt P56373); assay: Intracellular calcium measurement to assess antagonist activity at human P2X3 receptors (hP2X3 CHO), photina luminescence; set-up: expressed in transfected cells; host or cells: Chinese hamster ovary (CHO) cells; details: column 2), CHO cells, agonist α,β-methylene-ATP at EC50
T1 sequence (P56373 1-397): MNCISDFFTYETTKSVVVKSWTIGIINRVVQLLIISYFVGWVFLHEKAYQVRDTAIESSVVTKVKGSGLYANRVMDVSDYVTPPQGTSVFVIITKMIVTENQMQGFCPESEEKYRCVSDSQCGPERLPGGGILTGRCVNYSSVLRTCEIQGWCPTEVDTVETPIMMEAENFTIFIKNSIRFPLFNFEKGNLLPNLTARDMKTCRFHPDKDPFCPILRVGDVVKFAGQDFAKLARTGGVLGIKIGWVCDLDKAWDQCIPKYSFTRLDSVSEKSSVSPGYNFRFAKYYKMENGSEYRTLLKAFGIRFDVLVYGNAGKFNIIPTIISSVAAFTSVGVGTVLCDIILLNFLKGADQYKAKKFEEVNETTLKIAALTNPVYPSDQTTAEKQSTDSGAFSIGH
Protocol: 2) Intracellular Calcium Measurement to Assess Antagonist Activity at Human P2X3 Receptors (hP2X3 CHO)
The determination of antagonistic activity at the P2X3 receptor of the compounds of the invention was performed by use of a recombinant cell line. This cell line derives originally from the Chinese hamster ovary (CHO) cell line (Tjio J. H.; Puck T. T., 1958, J. Exp. Med. 108: 259-271). The cell line is stably transfected with the human P2X3 receptor and a calcium-sensitive photoprotein, mitochondrial photina, which, after reconstitution with the cofactor coelenterazine, emits light in dependence of calcium binding [Bovolenta S, Foti M, Lohmer S, Corazza S., J Biomol Screen. 2007 August; 12(5):694-704]. The strength of the photina luminescence signal corresponds to the level of receptor activation upon agonist binding. An inhibitor would decrease the signal depending on its potency and concentration. Bioluminescence was detected using a suitable luminometer [Milligan G, Marshall F, Rees S, Trends in Pharmacological Sciences 17,235-237 (1996)].
On the day before the assay, the cells were plated out in culture medium (DMEM/F12 (PAN, P04-41451), 10% FCS) in 384-well microtiter plates and kept in a cell incubator (96% humidity, 5% v/v CO2, […]). On the day of the assay medium was replaced by 2 mM Ca-tyrode buffer containing 5 μg/ml coelenterazine. Plates were incubated for 3 hours at 37° C. (96% humidity, 5% v/v CO2). […] The resulting light signal was measured immediately in the luminometer.

[2] = biological target: T1, human P2X3 receptor; assay: Intracellular calcium measurement, antagonist activity at human P2X3 receptors (hP2X3 1321N1), Fluo8; set-up: expressed in transfected cells; host or cells: human astrocytoma 1321N1 (1312N1 [sic]); details: column 3); 1321N1 cells, human P2X3, Fluo8, agonist ATP at EC50
Protocol: (§1) 3) And 4) Intracellular Calcium Measurement to Compare Antagonist Activity at Human P2X3 Receptors (hP2X3 1321N1) and at Human P2X2/3 Receptors (hP2X23 1321N1)
(§2) The comparison of antagonistic activity at the P2X3 versus the P2X2/3 receptor of the compounds of the invention were performed by use of recombinant cell lines. These cell lines derived originally from the human astrocytoma cell line […] (Macintyre E H, Pontén J, Vatter A E. Acta Pathol Microbiol Scand A. 1972; 80(2):267-83). The cell lines are stably transfected with the human P2X3 receptor forming homotrimeric P2X3 receptors or are co-transfected with P2X2 and P2X3 forming heterotrimeric P2X2/3 receptors. Stimulation of the receptors with the agonist ATP leads to a conformational change of the receptors and influx of extracellular calcium ions through the open ion channel. The cytoplasmatic calcium transient is detected via the calcium sensitive dye Fluo8. The strength of Fluo8 fluorescence signal corresponds to the level of receptor activation. An inhibitor would decrease the signal depending on its potency and concentration. Fluorescence was measured by use of a suitable fluorescence reader.
(§3) On the day before the assay, the cells were plated in culture medium (DMEM high glucose, 10% FCS, 1% MEM non-essential amino acids, 4 mM Glutamax) in 384-well poly-D-lysine coated microtiter plates and kept in a cell incubator (96% humidity, 5% v/v CO2, 37° C.). On the day of the assay medium was exchanged by Fluo8 containing buffer and incubated for 60 minutes. Test compounds were added at various concentrations and plates were incubated for 10 minutes. In the fluorescence reader a 3 seconds baseline measurement was performed and the agonist ATP was applied at EC50 concentration of the respective receptor during constant fluorescence measurement for 120 seconds.

[3] = biological target: T2, human P2X2/3 receptors (Homo sapiens, UniProt P56373+Q9UBL9); assay: Intracellular calcium measurement, antagonist activity at human P2X2/3 receptors (hP2X23 1321N1), Fluo8; details: for IC50: column 4); 1321N1 cells, human P2X2/3, Fluo8, agonist ATP at EC50; read-out: 4) hP2X2/3 IC50 [nM] (1321N1); for hP2X23/hP2X3* Selectivity (1321N1): ratio of column 4) hP2X2/3 to column 3) hP2X3, 1321N1
T2 construct: expressed in transfected cells; host or cells: human astrocytoma 1321N1 (1312N1 [sic])
T2 sequence (P56373 1-397): T1 sequence (P56373 1-397)
T2 sequence (Q9UBL9 1-471): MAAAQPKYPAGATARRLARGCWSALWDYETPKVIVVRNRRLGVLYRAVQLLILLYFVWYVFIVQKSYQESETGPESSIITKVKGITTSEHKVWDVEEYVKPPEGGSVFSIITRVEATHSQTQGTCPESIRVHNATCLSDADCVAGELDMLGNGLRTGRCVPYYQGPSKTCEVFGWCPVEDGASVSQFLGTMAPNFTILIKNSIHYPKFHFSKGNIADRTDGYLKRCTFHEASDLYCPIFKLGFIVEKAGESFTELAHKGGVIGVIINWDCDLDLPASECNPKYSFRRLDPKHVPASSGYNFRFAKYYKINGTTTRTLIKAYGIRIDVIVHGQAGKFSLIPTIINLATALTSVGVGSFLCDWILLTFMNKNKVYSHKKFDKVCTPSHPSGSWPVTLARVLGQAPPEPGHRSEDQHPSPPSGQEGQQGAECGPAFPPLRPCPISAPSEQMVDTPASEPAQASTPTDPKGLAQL
Protocol: as §1, §2, §3

| SMILES | IC50 [1] [nM] | IC50 [2] [nM] | IC50 [3] [nM] | hP2X23/hP2X3* Selectivity (1321N1) [3] |
| --- | --- | --- | --- | --- |
| CC(C)N1Cc2c(n(CC(=O)Nc3ccc(F)cn3)c3cc(C4CCN(C(=O)C(F)F)CC4)nn3c2=O)C1=O [Example 264] | 36 | 17 | 7400 | 427 |
| CC(C)N1Cc2c(n(CC(=O)Nc3ccc(F)cn3)c3cc(C4CCN(C(=O)OC(C)(C)C)CC4)nn3c2=O)C1=O [Example 227, tert-butyl 4-[4-{2-[(5-fluoropyridin-2-yl)amino]-2-oxoethyl}-5,8-dioxo-6-(propan-2-yl)-5,6,7,8-tetrahydro-4H-pyrazolo[1,5-a]pyrrolo[3,4-d]pyrimidin-2-yl]piperidine-1-carboxylate] | 24 | 71 | 9300 | 132 |
| CCc1cc2n(CC(=O)Nc3ccc(F)cn3)c3c(c(=O)n2n1)CN(C1CCNC1)C3=O (single isomer, unassigned) [Example 277, 2-{2-ethyl-5,8-dioxo-6-[pyrrolidin-3-yl]-5,6,7,8-tetrahydro-4H-pyrazolo[1,5-a]pyrrolo[3,4-d]-pyrimidin-4-yl}-N-(5-fluoropyridin-2-yl)acetamide] | 150 | 110 | 7300 | 66 |
| CC(C)N1Cc2c(n(CC(=O)Nc3ccc(F)cn3)c3cc(N4CCN(C)CC4)nn3c2=O)C1=O [Example 181, N-(5-fluoropyridin-2-yl)-2-[2-(4-methylpiperazin-1-yl)-5,8-dioxo-6-(propan-2-yl)-5,6,7,8-tetrahydro-4H-pyrazolo[1,5-a]pyrrolo[3,4-d]pyrimidin-4-yl]acetamide] | 63 | 32 | 5550 | 173 |
| COC[C@H](C)N1Cc2c(n(CC(=O)Nc3ccc(F)cn3)c3cc(C(=O)N4CCOCC4)nn3c2=O)C1=O [Example 191] | 29 | 27 | > 32000 | >1199 |
| COC[C@H](C)N1Cc2c(n(CC(=O)Nc3ccc(F)cn3)c3cc(C(=O)N(C)CC4CC4)nn3c2=O)C1=O [Example 195] | 20 | 22 | 8900 | 399 |
| CC(C)N1Cc2c(n(CC(=O)Nc3ccc(F)cn3)c3cc(CC4CCOCC4)nn3c2=O)C1=O [Example 96] | 20 | 26 | 8800 | 345 |
| COC[C@H](C)N1Cc2c(n(CC(=O)Nc3ccc(F)cn3)c3cc(-c4cc(C)ncc4C)nn3c2=O)C1=O [Example 158] | 10 | 3 | 1400 | 424 |
| CC(C)Cc1cc2n(CC(=O)Nc3ccc(F)cn3)c3c(c(=O)n2n1)CN(C1CCCC1)C3=O [Example 93] | 6 | 8 | 2350 | 295 |
| COC[C@H](C)N1Cc2c(n(CC(=O)Nc3ccc(F)cn3)c3cc(C(=O)N(C)c4ccccn4)nn3c2=O)C1=O [Example 214] | 22 | – | 6450 | – |
| O=C(Cn1c2c(c(=O)n3nc(C(=O)Nc4ccccc4F)cc13)CN(Cc1ccccn1)C2=O)Nc1ccc(F)cn1 [Example 222] | 15 | – | 1350 | – |
| COC[C@H](C)N1Cc2c(n(CC(=O)Nc3ccc(F)cn3)c3cc(C(=O)N(C)Cc4cccnc4)nn3c2=O)C1=O [Example 218] | 15 | – | 11500 | – |
| CC(C)N1Cc2c(n(CC(=O)Nc3ccc(F)cn3)c3cc(C4CCC(=O)N4C)nn3c2=O)C1=O (racemic) [Example 231, N-(5-fluoropyridin-2-yl)-2-{2-[(±)-1-methyl-5-oxopyrrolidin-2-yl]-5,8-dioxo-6-(propan-2-yl)-5,6,7,8-tetrahydro-4H-pyrazolo[1,5-a]pyrrolo[3,4-d]pyrimidin-4-yl}acetamide] | 95 | – | > 23500 | – |
| CCc1cc2n(CC(=O)Nc3ccc(F)cn3)c3c(c(=O)n2n1)CN(Cc1ccc(C)nc1)C3=O [Example 117] | 27 | – | 6150 | – |

Further lines, results first:

| IC50 [1] [nM] | IC50 [2] [nM] | IC50 [3] [nM] | hP2X23/hP2X3* Selectivity (1321N1) [3] | SMILES |
| --- | --- | --- | --- | --- |
| 35 | 42 | 6350 | 150 | CC(C)N1Cc2c(n(CC(=O)Nc3ccc(F)cn3)c3cc(N(C)C)nn3c2=O)C1=O [Example 172] |
| 173 | 210 | > 32000 | >152 | CC(O)c1cc2n(CC(=O)Nc3ccc(F)cn3)c3c(c(=O)n2n1)CN(C(C)C)C3=O (racemic) [Example 275, N-(5-fluoropyridin-2-yl)-2-{2-[(±)-1-hydroxyethyl]-5,8-dioxo-6-(propan-2-yl)-5,6,7,8-tetrahydro-4H-pyrazolo[1,5-a]pyrrolo[3,4-d]pyrimidin-4-yl}acetamide] |
| 27 | 33 | 1900 | 58 | CC(C)N1Cc2c(n(CC(=O)Nc3ccc(F)cn3)c3cc(NC(=O)OC(C)(C)C)nn3c2=O)C1=O [Example 91] |
| 12 | 16 | 2250 | 139 | CC(C)N1Cc2c(n(CC(=O)Nc3ccc(F)cn3)c3cc(-c4ccccc4)nn3c2=O)C1=O [Example 150, 2-[5,8-dioxo-2-phenyl-6-(propan-2-yl)-5,6,7,8-tetrahydro-4H-pyrazolo[1,5-a]pyrrolo[3,4-d]pyrimidin-4-yl]-N-(5-fluoropyridin-2-yl)acetamide] |
| 17 | – | 5000 | – | CC(C)N1Cc2c(n(CC(=O)Nc3ccc(F)cn3)c3cc(C(=O)Nc4c(F)cccc4F)nn3c2=O)C1=O [Example 205] |
| 17 | – | 2680 | – | CC(C)N1Cc2c(n(CC(=O)Nc3ccc(F)cn3)c3cc(C(=O)Nc4cccnc4)nn3c2=O)C1=O [Example 207] |
| 20 | – | 5600 | – | COC[C@H](C)N1Cc2c(n(CC(=O)Nc3ccc(F)cn3)c3cc(C(=O)Nc4cccnn4)nn3c2=O)C1=O [Example 216] |
